Among the data in ChEMBL document CHEMBL4130368, “Thienopyrimidine derivatives exert their anticancer efficacy via apoptosis induction, oxidative stress and mitotic catastrophe” (Eur J Med Chem, 2017) are IC50 values, retold here.

What is called IC50 is the concentration that inhibits the measured activity by half.

The subject of one test is HCT-116. In words: Antiproliferative activity against human HCT116 cells after 72 hrs by MTT assay. It counts as functional, cell-based. The following applies: HCT-116, 72 h. A general note: Formazan colour is commonly taken as a measure of viable cells.
For a further test, the system named is HCT-15. In words: Antiproliferative activity against human HCT15 cells after 72 hrs by MTT assay. It is filed as functional, cell-based. The following applies: HCT-15, 72 h.
The subject of the next test is LN-229. In words: Antiproliferative activity against human LN229 cells after 72 hrs by MTT assay. It is filed as functional, cell-based. The following applies: LN-229, 72 h.
Test [1] in a line: Antiproliferative activity against human GBM10 cells after 72 hrs by MTT assay. It counts as functional, cell-based. The following applies: GBM10, 72 h.
For another test, the system named is A2780. Put plainly: Antiproliferative activity against human A2780 cells after 72 hrs by MTT assay. It is filed as functional, cell-based. The following applies: A2780, 72 h.
A further test relates to CHO. In words: Cytotoxicity against CHO cells assessed as reduction in cell survival after 72 hrs by MTT assay. It counts as ADME, cell-based. The following applies: Cricetulus griseus.
A further test has as its system PC-3. Put plainly: Antiproliferative activity against human PC3 cells after 72 hrs by MTT assay. It counts as functional, cell-based. The following applies: PC-3, 72 h.
In the next test the test system is HepG2. In words: Antiproliferative activity against human HepG2 cells after 72 hrs by MTT assay. The following applies: HepG2, 72 h. It is filed as functional, cell-based.
In a further test the test system is KB. Put plainly: Antiproliferative activity against human KB cells by MTT assay. It counts as functional, cell-based.
The subject of another test is NCI-H460. Put plainly: Antiproliferative activity against human NCI-H460 cells after 24 hrs by MTT assay. It counts as functional, cell-based. The following applies: NCI-H460, 24 h.
Another test concerns A549. Put plainly: Antiproliferative activity against human A549 cells after 24 hrs by MTT assay. It counts as functional, cell-based. The following applies: A549, 24 h.
The test system of a further test is U-251. Put plainly: Antiproliferative activity against human U251 cells after 24 hrs by MTT assay. It is filed as functional, cell-based. The following applies: U-251, 24 h.

Take `O=c1[nH]c(-c2ccc(F)cc2)nc2sc3c(c12)CCCC3`: the IC50 in the test on HCT-116 was 9.1 µM; in the test with HCT-15 it was 8.6 µM; in the test with LN-229, 16.9 µM; in test [1] it was 14.5 µM; in the test on A2780 it was > 100 µM; in the test on CHO, > 100 µM.

As for `O=C(CSc1nc2sc3c(c2c(=O)n1Cc1ccccc1)CCCC3)NNC(=S)Nc1ccccc1`, the IC50 in the test on PC-3 and in the test on HCT-15 was 5.33 µM each time.

For `COc1cc(OC)cc(-c2nc(O)c3c4c(sc3n2)CCCC4)c1`, the IC50 in the test with HCT-116 was 22.3 µM; with HCT-15 it was 26.3 µM; in the test on LN-229 it was 48.1 µM; in test [1] it was 41.9 µM; with A2780, 7.3 µM; in the test with CHO, > 100 µM.

In the case of `Cc1ccc(-c2nc(O)c3c4c(sc3n2)CCCC4)cc1`, the IC50 in the test with HCT-116 is > 100 µM; with HCT-15 it was > 100 µM; in the test with LN-229, 99.1 µM; in [1] it was 69.9 µM; in the test on A2780 it was 86.8 µM; with CHO, > 100 µM.

`O=c1[nH]c(-c2ccc(Cl)cc2Cl)nc2sc3c(c12)CCCC3`: the IC50 in the test on HCT-116 was 77.1 µM; in the test on HCT-15, 90.9 µM; in the test with LN-229, 89.6 µM; in test [1], 99.5 µM; with A2780, 28.7 µM; with CHO, > 100 µM.

Regarding `O=c1c2c3c(sc2ncn1Cc1ccc(Br)cc1)CCCC3`, the IC50 in the test on HepG2 was found to be 14.9 µM.

Consider `N#Cc1ccc(-c2nc3sc4c(c3c(=O)[nH]2)CCCC4)cc1`, for which the IC50 (in the test with HCT-116; in the test with HCT-15; in the test on LN-229; in test [1]; in the test with A2780; in the test with CHO) was > 100 µM in each case.

As for `COc1ccc(-c2nc(O)c3c4c(sc3n2)CCCC4)cc1OC`, the IC50 is 19.6 µM in the test with HCT-116; 11 µM in the test with HCT-15; 14.5 µM in the test on LN-229; 12.5 µM in test [1]; 1.9 µM in the test on A2780; > 100 µM in the test with CHO.

Regarding `COc1cccc(-c2nc3sc4c(c3c(=O)[nH]2)CCCC4)c1O`, the IC50 was 34.2 µM with HCT-116; 32.8 µM in the test with HCT-15; 49.3 µM in the test on LN-229; 59.4 µM in test [1]; > 100 µM with A2780; > 100 µM in the test on CHO.

Take `CCCCOc1nc2sc3c(c2c(=O)n1Cc1ccccc1)CCCC3`: the IC50 in the test on KB was determined as 19 µM.

For `COc1cccc(-c2nc3sc4c(c3c(=O)[nH]2)CCCC4)c1`, the IC50 with HCT-116 is > 100 µM; in the test with HCT-15 it was > 100 µM; in the test on LN-229, > 100 µM; in [1] it was > 100 µM; in the test on A2780, 9.6 µM; with CHO it was > 100 µM.

As to `Oc1nc(-c2ccccc2)nc2sc3c(c12)CCCC3`, the IC50 was 8.3 µM in the test with HCT-116; 4.8 µM with HCT-15; 18.3 µM in the test on LN-229; 12 µM in test [1]; > 100 µM in the test on A2780; > 100 µM with CHO.

Consider `O=c1[nH]c(-c2cccc([N+](=O)[O-])c2)nc2sc3c(c12)CCCC3`, for which the IC50 with HCT-116 is 2.8 µM; with HCT-15 it was 1.9 µM; in the test with LN-229, 8.3 µM; in test [1] it was 12.6 µM; in the test with A2780, 91.8 µM; in the test with CHO it was > 100 µM.

Regarding `Nc1nc(NNC(=O)c2ccncc2)nc2sc3c(c12)CCCC3`, the IC50 is 7.7 µM in the test with NCI-H460, 18.9 µM with A549 and 13.3 µM in the test on U-251.

For the compound `Oc1nc(-c2ccc(Cl)cc2)nc2sc3c(c12)CCCC3`, the concentration for half-maximal inhibition (IC50) in the test on HCT-116 is 33.8 µM; in the test on HCT-15, 19.2 µM; in the test on LN-229, 33.8 µM; in [1], 33.2 µM; in the test on A2780, > 100 µM; in the test on CHO it was > 100 µM.

As for `O=[N+]([O-])c1ccc(-c2nc(O)c3c4c(sc3n2)CCCC4)cc1`, the IC50 in the test on HCT-116 was 71.1 µM; in the test on HCT-15 it was 65.6 µM; with LN-229, 44.2 µM; in test [1], 51.7 µM; in the test with A2780, > 100 µM; in the test with CHO, > 100 µM.
